Measurements reported in patent publication US6630488B1, “Quinolizinones as integrin inhibitors” (Biochem Pharma, Inc., priority 1998, dated 2003).
Counter-ions that a name gives are not always drawn. Like-named read-outs stand apart in the source and are kept apart here.

What was measured:
[1] = test system: Chick Chorioallantoic Membrane (CAM) capillary formation; experiment: Chick chorioallantoic membrane (CAM) mesh assay; format: in vivo, chicken; conditions: Day 12, 24 hr treatment
Experimental: Fertilized white leghorn chicken eggs (SPAFAS Inc., Norwich, Conn.) were received at day 0 and incubated for 3 days at 37 C with constant humidity. On day 3, eggs were rinsed with 70% ethanol and opened into 100 mm^2 tissue culture coated Petri dishes under aseptic conditions. The embryos were then returned to a humidified 38 C incubator for 7-9 additional days.
Vitrogen (Collagen Biomaterials, Palo Alto, Calif.) at a final concentration of 0.73 mg/ml and Matrigel (Becton Dickinson, Bedford, Mass.) at a final concentration of 10 mg/ml was directly pipetted onto Nylon meshes with 250 μm^2 openings which were cut into 4 mm×4 mm squares and autoclaved. Polymerization of meshes were under aseptic conditions, on bacteriological Petri dishes. The polymerization conditions for each substrate were identical; after mixing with or without […] of VPF/VEGF165 (Peprotech, Rocky Hill, N.J.) and/or compounds of interest, 40 μl were pipetted onto each mesh in a bacteriological Petri dish.
The Petri dish was placed in a humidified 37 C incubator with 5% CO2 for 30 minutes to allow polymerization followed by an incubation at 4 C for 2 hours.
In a tissue culture enclosure, meshes were placed onto the periphery of the CAM of a day 12-14 embryo, excluding areas containing major vessels. The embryos were then returned to the humidified 38 C incubator with 3% CO2 for 24 to 48 additional hours.
Embryos were removed from the incubator and meshes were viewed under a dissecting microscope for gross evaluation. Injection of 400 μl FITC dextran, MW 2,000,000 (Sigma, St. Louis, Mo.) through glass microcapillary tubes by infusion into the umbilical vein was performed at a rate of 200 μl per minute. The FITC dextran was allowed to circulate for 5 minutes and 3.7% formaldehyde in PBS was applied directly on each mesh. The embryos were then incubated at 4 C for 5 minutes and the meshes were dissected off the CAM and fixed in 3.7% formaldehyde for 10 minutes to overnight.
After fixation, meshes were mounted on slides with 90% glycerol in PBS and visualized on an inverted fluorescence microscope. A Nikon Diaphot with a Sony DXC-151A camera attached to the side port was used for capture of images and analysis was with the NIH Image 1.61 software program. For each mesh, 5 random staggered images (approximately 600 μm each) were captured. The areas of high intensity were highlighted and measured. Results are expressed as ability to suppress capillary formation after subtraction from negative control. Values were calculated as i inhibition, considering 100% the capillary density achieved by VPF in the presence of vitrogen alone minus the background levels in the absence of VPF. Negative values indicate angiogenic stimulation above the VPF positive control.

αvβ3 = target: T1, αvβ3 (Homo sapiens, UniProt P05106+P06756); experiment: Cell attachment assay, K562 transfected with αvβ3; format: cell-based
T1 construct: expressed in transfected cells; host or cells: K562
Experimental: (§1) The wells of 96-well plates (Immunolon) were coated, by incubation overnight at 4° C., with 5 μg/ml of vitronectin or osteopontin, 10 μg/ml of fibronectin or 10 mg/ml BSA in PBS. The protein solution was flicked out and the wells were blocked with 10 mg/ml BSA (0.1 ml) for 1-2 hours at 37° C.
(§2) Cells were lifted with trypsin-EDTA and washed two times with Hank's balanced salt solution (Sigma) supplemented with 1 mM MgCl2. Cells (75,000 cells/well) were added to coated plates in triplicate and allowed to attach at 37° C. for 1 hour in the presence or absence of specific antibodies at 5 μ/ml or increasing concentrations of compounds of interest (0.001-10 μM). Nonadherent cells were removed by gentle washing twice with PBS. The adherent cells were solubilized with 1% triton X-100 and detected using a fluorescence plate reader (Perkin Elmer).
(§3) The number of attached cells was calculated based upon starched curves for each cell line used in the experiment. […] The results presented are the average of triplicate samples and representative of several separate assays.

α5β1 = target: T2, α5β1 (Homo sapiens, UniProt P05556+P08648); experiment: Cell attachment assay, K562; format: cell-based; conditions: ligand fibronectin, read-out: Cell attachment IC50, α5β1, Fibro-nectin
T2 construct: Cell Line; K562 transfected αvβ3; HT29; K562; endogenous in cells; host or cells: K562
Experimental: The wells of 96-well plates (Immunolon) were coated, by incubation overnight at 4° C., with 5 μg/ml of vitronectin or osteopontin, 10 μg/ml of fibronectin or 10 mg/ml BSA in PBS. The protein solution was flicked out and the wells were blocked with 10 mg/ml BSA (0.1 ml) for 1-2 hours at 37° C. Cells [HT29 (ATOC), HMVEC (Cell Systems), K562 or K562 transfected with αvβ3 (Blystone et al., 1994)] were loaded with a fluorescent marker, 5-chloromethylfluorescein diacetate (Molecular Probes, Eugene, Or) for 1 hour at 37° C., then incubated in fresh medium without the fluorescent marker for 1 hour.
as §2
The number of attached cells was calculated based upon starched curves for each cell line used in the experiment. Non-specific cell attachment (attachment to wells coated with BSA) was always less than 5%. The results presented are the average of triplicate samples and representative of several separate assays.

[2] = Cell proliferation and cytotoxicity MTT assay, HT29; format: cell-based; conditions: human, HT29 tumor cells
Experimental: (§4) The wells of microtiter plates were seeded with 2000 cells/well (T24), 2500 cells/well (HT29), 5000 cells/well (HMVEC)or 2500 cells/well (IAFp2) in 100 μL, followed by an overnight culture for cell adhesion. […] Following culture for 72 hours, 3-(4,5-dimethyl-2-thiazolyl)-2,5-diphenyltetrazolium bromide (MTT; Sigma) at 2 mg/ml was added to each well (50 μL/well) and further incubated for 4 hours at 37° C. The medium was flicked out and 200 μL of a 1:1 solution of ethanol:acetone followed by 25 μL of glycine buffer (0.1 M glycine, 0.1M NaCl, pH 10.5) is added and the color measured by the absorbance at 570 nm.

[3] = Cell proliferation and cytotoxicity MTT assay, IAFp2; format: cell-based; conditions: IAFp2 skin fibroblasts, read-out: Cell proliferation and cytotoxicity IC50, IAFp2 Skin Fibroblast
Experimental: as §4

αvβ5 = target: T3, αvβ5 (Homo sapiens, UniProt P06756+P18084); experiment: Cell attachment assay, HT29; format: cell-based
T3 construct: Cells [HT29 (ATOC), HMVEC (Cell Systems), K562 or K562 transfected with αvβ3; endogenous in cells; host or cells: HT29
Experimental: as §1, §2, §3

[4] = Cell proliferation and cytotoxicity MTT assay, HMVEC; format: cell-based; conditions: human, HMVEC endothelial cells
Experimental: as §4

placental αvβ3 = target: T4, placental αvβ3 (Homo sapiens, UniProt P05106+P06756); experiment: Fibrinogen binding to immobilized αvβ3
T4 construct: purified active GP IIb-IIIa (Calbiochem) or olacental αvβ3 at 0.5 μg/ml; from tissue; host or cells: placenta
Experimental: (§5) Nonbound fibrinogen was removed by five washes with binding buffer. Avidin conjugated to alkaline phosphatase (Sigma), diluted in binding buffer, was added and incubated for two hours at 37° C. The plates were washed five times with binding buffer, and after addition of the substrate PNPP (Pierce), the enzyme activity was measured by the absorbance at 405 nm.

GP IIb-IIIa (αIIbβ3) = target: T5, GP IIb-IIIa (αIIbβ3) (Homo sapiens, UniProt P05106+P08514); experiment: Fibrinogen binding to immobilized GP IIb-IIIa (αIIbβ3)
T5 construct: purchased Calbiochem
Experimental: as §5

[5] = Cell proliferation and cytotoxicity MTT assay, T24; format: cell-based; conditions: human, T24 tumor cells
Experimental: as §4

[6] = ligand osteopontin, read-out: Cell attachment IC50, αvβ3, Osteo-Pontin
[7] = HT29, ligand vitronectin, read-out: Cell attachment IC50, αvβ5, Vitro-Nectin
[8] = biotinylated-fibrinogen 10 nM, immobilized placental αvβ3, read-out: IC50 values for the fibrinogen binding assay αvβ3
[9] = biotinylated-fibrinogen 10 nM, immobilized GP IIb-IIIa, read-out: IC50 values for the fibrinogen binding assay αIIbβ3
[10] = Cell attachment IC50, αvβ3, Osteo-Pontin, ligand osteopontin
[11] = Cell attachment IC50, αvβ3, Vitro-nectin, ligand vitronectin

T4 sequence (P06756 31-889 limits assumed): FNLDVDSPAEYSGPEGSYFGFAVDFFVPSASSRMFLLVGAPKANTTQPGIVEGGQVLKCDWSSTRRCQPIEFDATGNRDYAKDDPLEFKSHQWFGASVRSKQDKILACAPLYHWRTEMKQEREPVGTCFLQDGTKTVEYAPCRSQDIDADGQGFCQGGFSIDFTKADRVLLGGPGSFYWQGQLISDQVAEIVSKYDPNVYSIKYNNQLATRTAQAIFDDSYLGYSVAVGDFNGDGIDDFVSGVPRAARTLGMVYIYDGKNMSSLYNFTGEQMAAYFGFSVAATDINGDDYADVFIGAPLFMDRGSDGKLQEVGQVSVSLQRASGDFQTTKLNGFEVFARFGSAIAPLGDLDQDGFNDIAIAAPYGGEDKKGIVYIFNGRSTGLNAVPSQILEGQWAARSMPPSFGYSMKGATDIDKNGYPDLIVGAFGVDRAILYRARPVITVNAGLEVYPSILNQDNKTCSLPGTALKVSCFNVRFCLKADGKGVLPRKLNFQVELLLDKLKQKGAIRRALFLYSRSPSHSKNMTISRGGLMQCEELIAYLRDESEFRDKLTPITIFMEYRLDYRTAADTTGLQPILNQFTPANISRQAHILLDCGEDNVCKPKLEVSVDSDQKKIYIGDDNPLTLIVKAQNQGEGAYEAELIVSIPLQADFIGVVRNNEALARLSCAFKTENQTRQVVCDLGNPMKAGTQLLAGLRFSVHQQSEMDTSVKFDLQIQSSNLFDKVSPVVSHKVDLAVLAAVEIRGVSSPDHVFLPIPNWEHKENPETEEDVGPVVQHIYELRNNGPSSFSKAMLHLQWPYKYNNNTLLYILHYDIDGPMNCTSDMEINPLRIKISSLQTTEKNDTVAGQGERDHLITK
T4 sequence (P06756 891-1048 partner limits assumed): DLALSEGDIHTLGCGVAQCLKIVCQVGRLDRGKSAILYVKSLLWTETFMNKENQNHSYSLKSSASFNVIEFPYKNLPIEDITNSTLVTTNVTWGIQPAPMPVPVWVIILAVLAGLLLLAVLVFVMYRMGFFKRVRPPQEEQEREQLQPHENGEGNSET
T4 sequence (P05106 27-788): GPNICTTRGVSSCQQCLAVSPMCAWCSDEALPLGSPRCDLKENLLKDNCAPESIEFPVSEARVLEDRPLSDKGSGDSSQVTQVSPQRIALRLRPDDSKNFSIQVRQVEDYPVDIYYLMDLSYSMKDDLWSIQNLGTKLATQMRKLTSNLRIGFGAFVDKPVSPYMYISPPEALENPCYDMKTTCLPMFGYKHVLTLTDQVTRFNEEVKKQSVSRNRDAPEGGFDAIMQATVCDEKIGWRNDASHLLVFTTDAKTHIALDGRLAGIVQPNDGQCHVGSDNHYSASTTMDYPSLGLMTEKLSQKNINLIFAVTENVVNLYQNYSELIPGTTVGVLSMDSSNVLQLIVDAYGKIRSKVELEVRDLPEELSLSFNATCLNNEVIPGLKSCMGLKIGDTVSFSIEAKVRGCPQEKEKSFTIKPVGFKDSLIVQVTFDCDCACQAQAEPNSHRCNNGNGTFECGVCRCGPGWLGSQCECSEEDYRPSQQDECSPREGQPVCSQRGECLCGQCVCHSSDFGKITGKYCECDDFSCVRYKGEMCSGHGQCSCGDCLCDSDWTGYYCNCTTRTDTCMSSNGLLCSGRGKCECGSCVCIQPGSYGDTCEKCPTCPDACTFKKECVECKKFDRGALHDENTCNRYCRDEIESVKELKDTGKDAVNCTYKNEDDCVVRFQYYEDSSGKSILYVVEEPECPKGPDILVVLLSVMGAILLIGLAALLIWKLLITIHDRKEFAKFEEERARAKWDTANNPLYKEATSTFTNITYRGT
T1 sequence (P06756 31-889 limits assumed): as the sequence (P06756 31-889 limits assumed) above
T1 sequence (P06756 891-1048 partner limits assumed): as the sequence (P06756 891-1048 partner limits assumed) above
T1 sequence (P05106 27-788): as the sequence (P05106 27-788) above
T3 sequence (P06756 31-889 limits assumed): as the sequence (P06756 31-889 limits assumed) above
T3 sequence (P06756 891-1048 partner limits assumed): as the sequence (P06756 891-1048 partner limits assumed) above
T3 sequence (P18084 24-799): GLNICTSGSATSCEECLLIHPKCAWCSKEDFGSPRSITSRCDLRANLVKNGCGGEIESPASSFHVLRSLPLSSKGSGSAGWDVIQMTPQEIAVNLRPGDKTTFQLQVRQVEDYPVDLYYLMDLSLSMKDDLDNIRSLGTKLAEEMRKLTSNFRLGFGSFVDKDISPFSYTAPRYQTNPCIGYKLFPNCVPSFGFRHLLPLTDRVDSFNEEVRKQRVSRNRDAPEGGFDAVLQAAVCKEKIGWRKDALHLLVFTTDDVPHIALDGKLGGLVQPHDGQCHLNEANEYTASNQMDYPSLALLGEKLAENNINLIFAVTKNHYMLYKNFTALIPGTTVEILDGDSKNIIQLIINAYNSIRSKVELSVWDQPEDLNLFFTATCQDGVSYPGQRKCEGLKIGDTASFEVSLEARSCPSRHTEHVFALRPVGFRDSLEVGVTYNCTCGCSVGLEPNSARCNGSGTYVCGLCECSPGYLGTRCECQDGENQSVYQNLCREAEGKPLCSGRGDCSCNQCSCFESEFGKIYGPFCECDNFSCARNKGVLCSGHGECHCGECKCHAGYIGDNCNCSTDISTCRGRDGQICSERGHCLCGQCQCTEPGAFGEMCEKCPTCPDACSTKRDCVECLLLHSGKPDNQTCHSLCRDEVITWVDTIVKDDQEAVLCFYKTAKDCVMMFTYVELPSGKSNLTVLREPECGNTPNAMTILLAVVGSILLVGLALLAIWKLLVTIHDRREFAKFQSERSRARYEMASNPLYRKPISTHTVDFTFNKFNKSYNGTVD
T5 sequence (P08514 32-887 limits assumed): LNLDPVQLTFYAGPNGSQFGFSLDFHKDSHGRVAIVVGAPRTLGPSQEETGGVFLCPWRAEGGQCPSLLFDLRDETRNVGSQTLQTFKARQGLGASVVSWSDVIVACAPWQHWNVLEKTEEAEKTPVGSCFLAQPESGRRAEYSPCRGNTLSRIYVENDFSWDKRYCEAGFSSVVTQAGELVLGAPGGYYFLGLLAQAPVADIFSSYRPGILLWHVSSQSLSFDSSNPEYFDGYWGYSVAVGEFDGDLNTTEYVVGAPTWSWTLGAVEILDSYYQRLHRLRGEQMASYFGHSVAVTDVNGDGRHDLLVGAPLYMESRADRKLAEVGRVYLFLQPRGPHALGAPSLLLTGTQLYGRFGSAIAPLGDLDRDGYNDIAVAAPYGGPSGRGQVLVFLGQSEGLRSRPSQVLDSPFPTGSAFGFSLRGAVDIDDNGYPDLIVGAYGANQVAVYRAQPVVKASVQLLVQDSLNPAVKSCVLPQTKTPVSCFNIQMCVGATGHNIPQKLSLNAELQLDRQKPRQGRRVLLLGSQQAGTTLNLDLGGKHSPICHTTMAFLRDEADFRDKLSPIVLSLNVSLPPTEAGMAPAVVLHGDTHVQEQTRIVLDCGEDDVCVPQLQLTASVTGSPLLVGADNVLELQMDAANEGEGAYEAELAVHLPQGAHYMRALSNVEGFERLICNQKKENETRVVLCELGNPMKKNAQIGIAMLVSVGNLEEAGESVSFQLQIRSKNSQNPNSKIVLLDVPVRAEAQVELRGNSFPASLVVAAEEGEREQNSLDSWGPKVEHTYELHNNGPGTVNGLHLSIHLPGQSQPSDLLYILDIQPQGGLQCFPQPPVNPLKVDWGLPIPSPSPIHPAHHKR
T5 sequence (P08514 891-1039 partner limits assumed): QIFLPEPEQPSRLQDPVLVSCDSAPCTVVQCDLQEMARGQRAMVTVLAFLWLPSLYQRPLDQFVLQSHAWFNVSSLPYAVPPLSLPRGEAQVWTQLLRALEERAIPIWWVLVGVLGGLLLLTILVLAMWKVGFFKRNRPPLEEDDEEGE
T5 sequence (P05106 27-788): as the sequence (P05106 27-788) above

IC50 (αvβ3; [6]) [µM]	IC50 (α5β1) [µM]	IC50 (αvβ5; [7]) [µM]	IC50 (placental αvβ3; [8]) [µM]	IC50 (GP IIb-IIIa (αIIbβ3); [9]) [µM]	IC50 (αvβ5) [µM]	Compound	CAM inhibition of capillary formation ([1]; 3 μg/mesh, +VPF) [%]	CAM inhibition of capillary formation ([1]; 3 μg/mesh, −VPF) [%]	CAM inhibition of capillary formation ([1]; 17 μg/mesh, +VPF) [%]	CAM inhibition of capillary formation ([1]; 17 μg/mesh, −VPF) [%]	CAM inhibition of capillary formation ([1]; 33 μg/mesh, +VPF) [%]	CAM inhibition of capillary formation ([1]; 33 μg/mesh, −VPF) [%]	IC50 at 72 h [2] [µM]	IC50 at 72 h [3] [µM]	IC50 at 72 h [4] [µM]	IC50 at 72 h [5] [µM]	IC50 (αvβ3; [10]) [µM]	IC50 (αvβ3; [11]) [µM]	IC50 (placental αvβ3) [µM]	IC50 (GP IIb-IIIa (αIIbβ3)) [µM]
0.43 ± 0.18	> 10	5.8 ± 3.6	0.015	0.25		Cl.N=C(N)NCc1ccc2cc(C(=O)NC[C@H](NS(=O)(=O)c3ccccc3)C(=O)O)cc(=O)n2c1 [Compound XXVII, (S)-2-Benzenesulfonylamino-3-[(7-guanidinomethyl-4-oxo-4H-quinolizine-2-carbonyl)-amino]-propionic Acid Hydrochloride]	9	5	12	11	19	16	> 100	> 100	1.2 ± 0.4	> 100				
	> 10				> 10	N=C(N)NCCOc1ccc2cc(C(=O)NC[C@H](NS(=O)(=O)c3ccccc3)C(=O)O)cc(=O)n2c1 [Compound XX, (S)-2-Benzenesulfonylamino-3-{[7-(2-guanidino-ethoxy)-4-oxo-4H-quinolizine-2-carbonyl]-amino}-propionic Acid Hydrochloride]							100	21	35 ± 22	> 100	2.3 ± 2	> 10	0.1	0.0079
0.16 ± 0.01	> 10	3.2 ± 1.6	0.0042	0.094		N=C(N)NCC1CCc2cc(C(=O)NCC(NS(=O)(=O)c3ccccc3)C(=O)O)cc(=O)n2C1 [Compound XXIX, (2S, 7R) and (2S, 7S)-2-Benzenesulfonylamino-3-[(7-guanidinomethyl-4-oxo-6,7,8,9-tetrahydro-4H-quinolizine-2-carbonyl)-amino]-propionic Acid]	10	4	12	8	14	13	13	23	1 ± 0.2	> 100				

Compound	IC50 (αvβ3; [6]) [µM]	IC50 (α5β1) [µM]	IC50 (αvβ5; [7]) [µM]	IC50 (placental αvβ3; [8]) [µM]	IC50 (GP IIb-IIIa (αIIbβ3); [9]) [µM]	IC50 (αvβ5) [µM]	CAM inhibition of capillary formation ([1]; 3 μg/mesh, +VPF) [%]	CAM inhibition of capillary formation ([1]; 3 μg/mesh, −VPF) [%]	CAM inhibition of capillary formation ([1]; 17 μg/mesh, +VPF) [%]	CAM inhibition of capillary formation ([1]; 17 μg/mesh, −VPF) [%]	CAM inhibition of capillary formation ([1]; 33 μg/mesh, +VPF) [%]	CAM inhibition of capillary formation ([1]; 33 μg/mesh, −VPF) [%]	IC50 at 72 h [2] [µM]	IC50 at 72 h [3] [µM]	IC50 at 72 h [4] [µM]	IC50 at 72 h [5] [µM]	IC50 (αvβ3; [10]) [µM]	IC50 (αvβ3; [11]) [µM]	IC50 (placental αvβ3) [µM]	IC50 (GP IIb-IIIa (αIIbβ3)) [µM]
N=C(N)NCCCOc1ccc2cc(C(=O)NC[C@H](NS(=O)(=O)c3ccccc3)C(=O)O)cc(=O)n2c1 [Compound XV, (S)-2-Benzenesulfonylamino-3-{[7-(3-guanidino-propoxy)-4-oxo-4H-quinolizine-2-carbonyl]-amino}-propionic Acid Hydrochloride]		> 10					7	2	7	9	10	8	> 100	17	16 ± 4	> 100	0.5 ± 0.2	2.5 ± 1.5	0.015	0.0053
